Molecules are shown by their SMILES.

This assay deals with proton-gated ion channels (ASIC). In words: Two-electrode voltage clamp in Xenopus laevis oocytes expressing gated ion channels (Xo). Format: cell-based. As to conditions: acidic solution (pH<7) activation. Here is the method: Two-electrode voltage clamp electrophysiological assays in Xenopus laevis oocytes expressing gated ion channels are performed as follows:
Oocytes are surgically removed from adult Xenopus laevis and treated for 2 h at room temperature with 1 mg/ml type I collagenase (Sigma) in Barth's solution under mild agitation. Selected oocytes at stage IV-V are defolliculated manually before nuclear microinjection of 2.5-5 ng of a suitable expression vector, such as pCDNA3, comprising the nucleotide sequence encoding a gated ion channel subunit protein. In such an experiment, the oocytes express homomultimeric proton-gated ion channels on their surface. In an alternate experiment, one, two, three or more vectors comprising the coding sequences for distinct gated ion channel subunits are co-injected in the oocyte nuclei. In the latter case, oocytes express heteromultimeric proton-gated ion channels. For example, ASIC2a and/or ASIC3 subunits in pcDNA3 vector are co-injected at a 1:1 cDNA ratio. After 2-4 days of expression at 19° C. in Barth's solution containing […] gentamicin and 1.8 mM CaCl2, gated ion channels are activated by applying an acidic solution (pH<7) and currents are recorded in a two electrode voltage-clamp configuration, using an OC-725B amplifier (Warner Instruments). Currents are acquired and digitized at 500 Hz on an Apple Imac G3 computer with an A/D NB-MIO-16XL interface (National Instruments) and recorded traces are post-filtered at 100 Hz in Axograph (Axon Instruments) (Neher, E. and Sakmann, B. (1976) Nature 260:799-802). Once impaled with the microelectrodes, oocytes are continuously superfused at 10-12 ml/min with a modified Ringer's solution containing 97 mM NaCl, 2 mM KCl, 1.8 mM CaCl2, and 10 mM HEPES brought to pH 7.4 with NaOH (Control Ringer). Test Ringer solution is prepared by replacing HEPES with MES and adjusting the pH to the desired acidic value. Compounds of the present invention are prepared in both the Control and Test Ringer solutions and applied to oocytes at room temperature through a computer-controlled switching valve system. Osmolarity of all solutions is adjusted to 235 mOsm with choline chloride. Similarly, recordings can also be acquired in an automated multichannel oocytes system as the OpusExpress™ (Molecular Devices, Sunnyvale, USA).
A general note: Two-electrode voltage clamp holds a large cell at a set potential and records current.
Take `CN1CCC2=C(c3ccccc3)CCC(NC(=O)c3cccc(/C=N/O)c3)[C@H]2C1` (stereo partly shown) [Compound 27]: the “percent effect on acid-evoked current (two-electrode voltage clamp)” value (“percent effect on acid-evoked current” for short) is reported as less than 20%.

For `CN1CCC(O)(C(=NNC(N)=O)c2ccccc2)CC1` [Compound 52], the “percent effect on acid-evoked current” value is reported as less than 20%.

In the case of `CN1CC[C@@H]2C(=O)c3ccccc3[C@@H]2C1` [Compound 40], the “percent effect on acid-evoked current” value is listed as less than 20%.

In the case of `CN1CCC(O)(/C(=N\NC(=O)c2ccco2)c2ccccc2)CC1` [Compound 47], the “percent effect on acid-evoked current” value is less than 20%.

Take `CN1CCC2=C(c3ccccc3)CCC(NC(=O)c3cccc(O)c3)C2C1` (stereo not shown) [Compound 30]: the “percent effect on acid-evoked current” value is recorded as less than 20%.

In the case of `CCOC(=O)C1=C(Nc2ccccc2)CCN(Cc2ccccc2)C1` [Compound 55], the “Xo: percent binding data” value is less than 20%.

For the compound `CCOC(=O)N1NCC(c2ccccc2)=C2CCN(C)CC21` (stereo not shown) [Compound 3], the “percent effect on acid-evoked current” value is less than 20%.

As to `CN1CCC(O)(/C(=N\NC(=O)c2ccccc2N)c2ccccc2)CC1` [Compound 37], the “percent effect on acid-evoked current” value was less than 20%.

For `CN1CCC2=C(c3ccccc3)CC[C@@H](NC(=O)c3ccccc3)[C@H]2C1` [Compound 25], the “percent effect on acid-evoked current” value is given as less than 20%.

Turning to `CN1CCC2=C(c3ccccc3)CCC(C(=O)OCCO)C2C1` (stereo not shown) [Compound 11], the “percent effect on acid-evoked current” value is less than 20%.

Regarding `CN1CCC2=C(c3ccccc3)CCC(C(=O)Nc3ccc(Cl)cc3)C2C1` (stereo not shown) [Compound 13], the “percent effect on acid-evoked current” value is less than 20%.

Regarding `CN1CCC2=C(c3ccccc3)CC[C@@H](C(=O)NCCO)C2C1` (stereo partly shown) [Compound 20], the “percent effect on acid-evoked current” value is less than 20%.

In the case of `CN1CCC2=C(c3ccccc3)CC[C@@H](C(=O)Nc3ccccc3)C2C1` (stereo partly shown) [Compound 17], the “percent effect on acid-evoked current” value is less than 20%.

As for `COC(=O)C1=CCC(c2ccccc2)=C2CCN(C(=O)OC(C)(C)C)CC12` (stereo not shown) [Compound 8], the “percent effect on acid-evoked current” value is less than 20%.

For the compound `CN1CCC2=C(c3ccccc3)CC[C@@H](NC(=O)c3ccc(O)cc3)[C@H]2C1` [Compound 29], the “Xo: percent binding data” value is less than 20%.

On to `CN1CCC2=C(c3ccccc3)CC[C@@H](C(=O)Nc3cccnc3)C2C1` (stereo partly shown) [Compound 19], for which the “percent effect on acid-evoked current” value was less than 20%.

`CCOC(=O)N1CC(c2ccccc2)=C2CCN(C(=O)OC(C)(C)C)C[C@@H]2N1C(=O)OCC` [Compound 2]: the “percent effect on acid-evoked current” value is on record as less than 20%.

As to `CN1CCC(O)(/C(=N\NC(=O)c2ccccc2[N+](=O)[O-])c2ccccc2)CC1` [Compound 50], the “percent effect on acid-evoked current” value is recorded as less than 20%.

`C#CCNC(=O)[C@@H]1CCC(c2ccccc2)=C2CCN(C)CC21` (stereo partly shown) [Compound 15]: the “percent effect on acid-evoked current” value is given as less than 20%.

With `CN1CCC2=C(c3ccccc3)CCC(NC(=O)c3ccc(/C=N/O)cc3)C2C1` (stereo not shown) [Compound 36], the “percent effect on acid-evoked current” value is on record as less than 20%.

As for `CCOC(=O)C1CCC(c2ccccc2)=C2CCN(C)CC21` (stereo not shown) [Compound 10], the “percent effect on acid-evoked current” value is given as less than 20%.

Turning to `CN1CCC2=C(c3ccccc3)CC=C(C#N)[C@H]2C1` [Compound 7], the “percent effect on acid-evoked current” value is given as less than 20%.

In the case of `CN1CCC(O)(/C(=N\Nc2ccccc2)c2ccccc2)CC1` [Compound 46], the “percent effect on acid-evoked current” value is given as less than 20%.

Regarding `N#CC1=CCC(c2ccccc2)=C2CCNCC12` (stereo not shown) [Compound 4], the “percent effect on acid-evoked current” value is on record as less than 20%.

Consider `CN1CCC2=C(c3ccccc3)CCC(NC(=O)c3ccccc3O)C2C1` (stereo not shown) [Compound 34], for which the “percent effect on acid-evoked current” value was less than 20%.

`CN1CCC2=C(c3ccccc3)CC[C@@H](C(=O)Nc3ccccc3Cl)C2C1` (stereo partly shown) [Compound 14]: the “percent effect on acid-evoked current” value is given as less than 20%.

Regarding `CN1CCC2=C(c3ccccc3)Cn3c(=O)n(C)c(=O)n3C2C1` (stereo not shown) [Compound 56], the “percent effect on acid-evoked current” value was less than 20%.

As for `CN1CC[C@@H]2/C(=N\NC(N)=O)c3ccccc3[C@@H]2C1` [Compound 43], the “percent effect on acid-evoked current” value is less than 20%.

On to `CN1CCC(O)(/C(=N\NC(=O)c2ccc(O)cc2O)c2ccccc2)CC1` [Compound 45], for which the “percent effect on acid-evoked current” value is given as less than 20%.

As for `CC(C)(C)OC(=O)N1CCC2=C(c3ccccc3)CC[C@@H]([N+](=O)[O-])[C@H]2C1` [Compound 31], the “percent effect on acid-evoked current” value is less than 20%.

In the case of `CN1CCC2=C(c3ccccc3)CC[C@@H]([N+](=O)[O-])[C@H]2C1` [Compound 23], the “percent effect on acid-evoked current” value was less than 20%.

As for `CN1CCC2=C(c3ccccc3)CCC(C(=O)O)C2C1` (stereo not shown) [Compound 9], the “percent effect on acid-evoked current” value is listed as less than 20%.

In the case of `CN1CCC(O)(/C(=N\Nc2ccc([N+](=O)[O-])cc2[N+](=O)[O-])c2ccccc2)CC1` [Compound 42], the “Xo: percent binding data” value was less than 20%.

For `CCOC(=O)N1CC(c2ccccc2)=C2CCN(C)CC2N1C(=O)OCC` (stereo not shown) [Compound 1], the “percent effect on acid-evoked current” value is recorded as less than 20%.

As for `CN1CC[C@@H]2/C(=N/O)c3ccccc3[C@@H]2C1` [Compound 41], the “percent effect on acid-evoked current” value is less than 20%.

For `CN1CCC2=C(c3ccccc3)CCC(N)C2C1` (stereo not shown) [Compound 26], the “percent effect on acid-evoked current” value was less than 20%.

In the case of `CC(=O)N[C@@H]1CCC(c2ccccc2)=C2CCN(C)C[C@@H]21` [Compound 24], the “percent effect on acid-evoked current” value is less than 20%.

`CN1CCC(O)(/C(=N/N)c2ccccc2)CC1` [Compound 39a]: the “percent effect on acid-evoked current” value was less than 20%.

On to `CN1CCC2=C(c3ccccc3)CCC(NC(=O)c3ccc(C=O)cc3)C2C1` (stereo not shown) [Compound 33], for which the “percent effect on acid-evoked current” value is on record as less than 20%.

Consider `CN1CCC2=C(c3ccccc3)CC[C@@H](C(=O)N(C)C)C2C1` (stereo partly shown) [Compound 16], for which the “percent effect on acid-evoked current” value is on record as less than 20%.

In the case of `COC(=O)C1=C(C(=O)OC)C2CN(C(=O)OC(C)(C)C)CCC2=C(c2ccccc2)C1` (stereo not shown) [Compound 6], the “percent effect on acid-evoked current” value was less than 20%.

Take `CN1CCC(O)(/C(=N\NC(=O)c2cccc(O)c2)c2ccccc2)CC1` [Compound 54]: the “percent effect on acid-evoked current” value is less than 20%.

For `CN1CC[C@@H]2/C(=N/Nc3ccc([N+](=O)[O-])cc3[N+](=O)[O-])c3ccccc3[C@@H]2C1` [Compound 39], the “Xo: percent binding data” value is given as less than 20%.

Take `CN1CCC2=C(c3ccccc3)CC[C@@H](C(=O)NCc3ccccc3)[C@H]2C1` [Compound 21]: the “percent effect on acid-evoked current” value was less than 20%.

In the case of `CN1CCC2=C(c3ccccc3)CC[C@@H](C(=O)Nc3ccccn3)C2C1` (stereo partly shown) [Compound 18], the “percent effect on acid-evoked current” value is recorded as less than 20%.

Take `CCOC(=O)c1cccnc1N/N=C(/c1ccccc1)C1(O)CCN(C)CC1` [Compound 51]: the “percent effect on acid-evoked current” value is less than 20%.

Take `CN1CCC2=C(c3ccccc3)CCC(C(=O)Nc3cccc(Cl)c3)C2C1` (stereo not shown) [Compound 12]: the “percent effect on acid-evoked current” value was less than 20%.

As to `CN1CCC2=C(c3ccccc3)Cn3c(=O)n(-c4ccccc4)c(=O)n3C2C1` (stereo not shown) [Compound 57], the “percent effect on acid-evoked current” value is less than 20%.

`CN1CCC2=C(c3ccccc3)CCC(NC(=O)c3cccc(C=O)c3)C2C1` (stereo not shown) [Compound 32]: the “percent effect on acid-evoked current” value was less than 20%.

For `CN1CCC(O)(/C(=N\Nc2ccccn2)c2ccccc2)CC1` [Compound 48], the “percent effect on acid-evoked current” value is reported as less than 20%.

As to `CN1CCC2=C(c3ccccc3)CC[C@@H](C(=O)N3CCNCC3)[C@H]2C1` [Compound 22], the “percent effect on acid-evoked current” value was less than 20%.

On to `CN1CCC2=C(c3ccccc3)CCC(NC(=O)c3ccc(/C=N/O)cc3)[C@H]2C1` (stereo partly shown) [Compound 28], for which the “percent effect on acid-evoked current” value is less than 20%.

In the case of `CN1CC=C(/C(=N\Nc2ccc([N+](=O)[O-])cc2[N+](=O)[O-])c2ccccc2)CC1` [Compound 44], the “Xo: percent binding data” value is less than 20%.

`CN1CCC2=C(c3ccccc3)CCC(NC(=O)c3ccc(Cl)cc3)C2C1` (stereo not shown) [Compound 35]: the “percent effect on acid-evoked current” value was less than 20%.

On to `CC(C)(C)OC(=O)N1CCC2=C(c3ccccc3)CC=C(C#N)C2C1` (stereo not shown) [Compound 5], for which the “percent effect on acid-evoked current” value is listed as less than 20%.
